Entries after “also recorded” stand apart in the source; their conditions may differ.
System: K14 mice
Assay: Brain histopathology (CD68, F4/80, GFAP staining) in K14 mice
Format: in vivo, mouse
Conditions: daily IP from P4, staining at P10, vs vehicle
Method: After genotype confirmation, animals were humanely sacrificed at 10 days of age, At this age K14 mice are asymptomatic. Mice received an intraperitoneal injection of 150 mg/kg sodium pentobarbital ((Euthasol, Virbac Inc, Fort Worth, Tex.) and were perfused by an intracardial infusion of chilled 0.9% sodium chloride. Brains were removed and post fixed in 4% paraformaldehyde for 72 hours. Tissue was transferred to PBS and paraffin embedded. Sagital sections 5 μm thick were cut and stained as described below. Gliosis and the presence of cells of the macrophage lineage were evaluated by means of glial fibrillary acidic protein staining and expression of CD68 and F4/80 pan-macrophage markers using the Leica Bond Max Immunostainer system (Leica Microsystems, Wetzlar, Germany).
GFAP staining: Paraffin sections were placed on mounting slides and processed using the Bond Polymer Refine IHC system (Leica Microsystems, Wetlzar, Germany) blocked for 10 minutes in serum-free protein block (Dako systems, Glostrup, Denmark), incubated for 30 minutes in a 1:1500 dilution of primary anti-GFAP antibody in Dako antibody diluent (Dako, Glostrup, Denmark), and stained using the Bond Polymer Refine detection kit (Leica Microsystems, Wetzlar, Germany). […]
For each staining technique exposure-matched digital images were obtained from similar brain regions of each experimental group using the Aperio ScanScope XT system (Aperio Technologies, Vista, Calif.). Stained slides were digitalized in high resolution and six areas of interest were highlighted in each slide and analyzed independently by histomorphometry. Positively stained area and nuclei were determined and quantitative data were analyzed by a one-way analysis of variance followed by Tukey's multiple comparison test using the Graph Pad Prism V 4.0 (GraphPad Software, San Diego, Calif.). […]

CC(C)(NC(=O)OC1CN2CCC1CC2)c1cccc(-c2ccc(F)cc2)c1 (stereo not drawn) [GZ 161, Quinuclidin-3-yl(2-(4′-fluoro-[1,1′-biphenyl]-3-yl)propan-2-yl)carbamate]
CD68+ cells in brain (hippocampus, thalamus, brainstem, cerebellum): reduces the numbers of CD68+ cells in all of these locations; also recorded: significant reductions the CD68+ cells in all brain regions
F4/80+ cells in brain: reduced the numbers of F4/80+ cells in the thalamus and brainstem, but had marginal effects in other brain regions; also recorded: significant reductions the F4/80+ cells in the thalamus and brainstem
GFAP staining (gliosis) in brain: decreased GFAP staining in the hippocampus and cerebellum; also recorded: significant reductions the GFAP+ cells in the hippocampus and cerebellum
